Experimental data published in patent US12226417B2, “Fatty liver disease treatment using glucocorticoid and mineralocorticoid receptor antagonists” (Corcept Therapeutics, Inc., priority 2014, dated 2025).

Experiments:
human recombinant GR = molecular target: T1, human recombinant GR (Homo sapiens, UniProt P04150); test: GR protein:protein interaction assay (DiscoveRx, CHO-K1, PGC1α); format: cell-based
T1 construct: β-galactosidase enzyme fragment (complementation partner); host or cells: CHO-K1
T1 sequence (P04150 1-777): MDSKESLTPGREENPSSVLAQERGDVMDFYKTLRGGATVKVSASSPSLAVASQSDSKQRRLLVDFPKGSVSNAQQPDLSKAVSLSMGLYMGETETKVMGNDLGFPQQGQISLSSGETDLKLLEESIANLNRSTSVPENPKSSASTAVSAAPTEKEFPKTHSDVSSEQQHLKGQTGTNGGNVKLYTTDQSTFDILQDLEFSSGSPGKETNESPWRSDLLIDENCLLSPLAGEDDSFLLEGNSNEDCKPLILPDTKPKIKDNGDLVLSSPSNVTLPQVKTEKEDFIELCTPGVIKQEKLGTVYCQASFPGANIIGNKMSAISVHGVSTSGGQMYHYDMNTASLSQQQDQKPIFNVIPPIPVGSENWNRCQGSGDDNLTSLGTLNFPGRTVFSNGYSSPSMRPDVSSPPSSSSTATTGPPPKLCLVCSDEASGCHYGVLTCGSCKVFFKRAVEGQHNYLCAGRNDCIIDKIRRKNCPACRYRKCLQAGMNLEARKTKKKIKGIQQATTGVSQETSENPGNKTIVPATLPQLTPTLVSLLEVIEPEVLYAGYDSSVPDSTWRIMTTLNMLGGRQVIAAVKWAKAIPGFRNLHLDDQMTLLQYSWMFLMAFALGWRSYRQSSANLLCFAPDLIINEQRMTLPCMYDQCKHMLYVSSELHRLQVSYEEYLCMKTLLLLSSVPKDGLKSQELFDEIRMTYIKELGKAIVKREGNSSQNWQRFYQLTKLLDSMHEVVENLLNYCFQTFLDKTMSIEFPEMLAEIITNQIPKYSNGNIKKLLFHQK
From the text: (§1) Protein:protein interaction assays were used to determine the ability of test compounds to act as antagonists of the glucocorticoid receptor and/or mineralocorticoid receptor. These assays utilize a commercial assay platform provided by DiscoveRx Corp. (Fremont, CA). DiscoveRx technology is based on β-galactosidase enzyme fragment complementation using a luminogenic substrate. Briefly, Chinese hamster ovary cells (CHO-K1) have been engineered to express either human recombinant GR or MR together with a steroid responsive coactivator protein (SRCP) called PGC1α (peroxisome proliferator activated receptor gamma coactivator lα). The assay measures the net outcome of GR or MR activation, i.e., nuclear translocation from the cytoplasm and interaction of the GR or MR with the coactivator PGC1α in the cell nucleus. The assay can be configured in both agonist and antagonist modes.
(§2) The cells (100 μl) were plated into 96 well plates and placed in a 37° C., 5% CO2 incubator for 24 hours. After removing the cells from the incubator, 5 μl of test compound or vehicle was added to each well, and the plates were incubated for 1 hour at 37° C., 5% CO2. […] The detection reagent was added, 55 μl per well, and the plates were incubated at room temperature in the dark without mixing. The plates were read for luminescence using an EnVision® plate reader (3 hour read).

[1] = molecular target: T2, progesterone receptor (PR) (Homo sapiens, UniProt P06401); test: PR reporter gene assay using T47D/MMTV-5 cells; format: cell-based; conditions: antagonist mode, 50 nM progesterone
T2 construct: containing endogenous mineralocorticoid and progesterone receptors (PR); endogenous in cells; host or cells: T47D/MMTV-5 (human breast carcinoma, stably transfected with pMAMneo-Luc reporter)
T2 sequence (P06401 1-933): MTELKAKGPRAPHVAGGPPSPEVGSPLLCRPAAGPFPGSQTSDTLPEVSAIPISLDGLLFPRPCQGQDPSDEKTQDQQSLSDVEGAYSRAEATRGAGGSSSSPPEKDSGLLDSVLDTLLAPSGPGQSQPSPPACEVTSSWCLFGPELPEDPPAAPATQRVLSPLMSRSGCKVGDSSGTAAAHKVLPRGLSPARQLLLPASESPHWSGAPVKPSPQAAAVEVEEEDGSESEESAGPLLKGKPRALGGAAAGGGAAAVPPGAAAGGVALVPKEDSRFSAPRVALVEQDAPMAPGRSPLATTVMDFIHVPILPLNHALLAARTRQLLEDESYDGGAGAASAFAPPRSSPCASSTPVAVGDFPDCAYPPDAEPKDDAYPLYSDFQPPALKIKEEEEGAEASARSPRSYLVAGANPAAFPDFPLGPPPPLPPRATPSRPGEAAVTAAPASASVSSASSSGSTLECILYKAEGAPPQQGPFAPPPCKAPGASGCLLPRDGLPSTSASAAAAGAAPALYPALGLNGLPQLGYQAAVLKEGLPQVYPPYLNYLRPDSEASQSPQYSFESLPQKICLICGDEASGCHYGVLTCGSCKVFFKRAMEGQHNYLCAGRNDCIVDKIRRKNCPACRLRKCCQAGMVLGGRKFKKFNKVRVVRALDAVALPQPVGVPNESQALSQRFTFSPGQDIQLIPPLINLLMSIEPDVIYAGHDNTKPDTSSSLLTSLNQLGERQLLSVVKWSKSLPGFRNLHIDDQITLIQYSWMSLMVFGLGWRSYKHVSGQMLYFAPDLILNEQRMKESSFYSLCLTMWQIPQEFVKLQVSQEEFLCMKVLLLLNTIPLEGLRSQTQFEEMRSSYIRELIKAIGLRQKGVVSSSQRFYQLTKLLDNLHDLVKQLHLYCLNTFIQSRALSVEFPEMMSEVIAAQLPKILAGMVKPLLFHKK
Procedure: (§3) As described for the SW1353 cell line above, T47D cells were transfected with the same pMAMneo-Luc plasmid, and stable lines were selected with geneticin.
(§4) T47D/MMTV-5 calls were distributed in 96-well plates (100 μl) in RPMI640 medium+10% charcoal stripped FCS. The cells were incubated for 24 hours in a CO2 oven.

[2] = molecular target: T3, mineralocorticoid receptor (MR) (Homo sapiens, UniProt P08235); test: MR reporter gene assay using T47D/MMTV-5 cells; format: cell-based
T3 construct: containing endogenous mineralocorticoid and progesterone receptors (PR); endogenous in cells; host or cells: T47D/MMTV-5 (human breast carcinoma, stably transfected with pMAMneo-Luc reporter)
T3 sequence (P08235 1-984): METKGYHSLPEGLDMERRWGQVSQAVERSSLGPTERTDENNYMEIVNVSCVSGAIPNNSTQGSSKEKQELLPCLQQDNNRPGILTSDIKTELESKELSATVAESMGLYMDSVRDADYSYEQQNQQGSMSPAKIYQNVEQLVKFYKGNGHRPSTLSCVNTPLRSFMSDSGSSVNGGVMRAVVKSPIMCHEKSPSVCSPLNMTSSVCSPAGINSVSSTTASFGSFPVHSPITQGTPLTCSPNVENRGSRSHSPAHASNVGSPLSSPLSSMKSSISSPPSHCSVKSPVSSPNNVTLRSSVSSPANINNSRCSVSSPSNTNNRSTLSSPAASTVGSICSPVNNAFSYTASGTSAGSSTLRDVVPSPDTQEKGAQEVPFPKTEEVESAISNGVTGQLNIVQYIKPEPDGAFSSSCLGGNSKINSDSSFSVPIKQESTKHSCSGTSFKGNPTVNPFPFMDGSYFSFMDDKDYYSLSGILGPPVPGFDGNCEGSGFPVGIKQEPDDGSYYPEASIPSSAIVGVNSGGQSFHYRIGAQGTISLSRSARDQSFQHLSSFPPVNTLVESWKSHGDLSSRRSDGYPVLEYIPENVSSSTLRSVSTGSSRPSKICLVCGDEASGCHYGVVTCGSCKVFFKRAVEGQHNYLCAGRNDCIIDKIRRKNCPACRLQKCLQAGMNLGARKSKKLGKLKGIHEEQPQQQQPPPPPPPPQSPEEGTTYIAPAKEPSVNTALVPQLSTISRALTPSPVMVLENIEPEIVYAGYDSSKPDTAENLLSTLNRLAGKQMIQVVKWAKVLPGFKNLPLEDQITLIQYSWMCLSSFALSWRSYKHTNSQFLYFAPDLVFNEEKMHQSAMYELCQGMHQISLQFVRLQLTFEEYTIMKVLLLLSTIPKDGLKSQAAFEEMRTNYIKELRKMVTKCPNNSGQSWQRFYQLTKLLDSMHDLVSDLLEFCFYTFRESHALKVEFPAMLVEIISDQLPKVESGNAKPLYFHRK
Procedure: as §3, §4

[3] = test system: C57B16/J mice given a high fat diet; test: Determination of liver lipids in mice fed a high fat diet (Oil Red O staining); format: in vivo, mouse; conditions: high fat diet (60% fat) three weeks; for fatty liver compared to the controls: 60 mg/kg/day in the food
Procedure: C57B16/J mice (n=8 per group) were given a high fat diet (60% fat) for three weeks and then sacrificed. Livers were collected and weighed. Liver slices were prepared and analysed for lipid levels by Oil Red 0 staining (FIGS. 1 and 3). One group of mice received Compound 1 mixed in the food (60 mg/kg/day) whilst another group of mice received vehicle mixed in the food. […] Compound 1 has GR antagonist activity and some MR antagonist activity.

human recombinant MR = molecular target: T4, human recombinant MR (Homo sapiens, UniProt P08235); test: MR protein:protein interaction assay (DiscoveRx, CHO-K1, PGC1α); format: cell-based
T4 construct: β-galactosidase enzyme fragment (complementation partner); host or cells: CHO-K1
T4 sequence (P08235 1-984): T3 sequence (P08235 1-984)
From the text: as §1
as §2, with “EnVision® (Perkin Elmer, Walthan, MA)” for “EnVision®”

[4] = molecular target: T5, glucocorticoid receptor (GR) (Homo sapiens, UniProt P04150); test: GR reporter gene assay using SW1353/MMTV-5 cells; format: cell-based
T5 construct: contains endogenous glucocorticoid receptors; endogenous in cells; host or cells: SW1353/MMTV-5 (human chondrosarcoma, stably transfected with pMAMneo-Luc reporter)
T5 sequence (P04150 1-777): T1 sequence (P04150 1-777)
Procedure: SW1353/MMTV-5 is an adherent human chondrosarcoma cell line that contains endogenous glucocorticoid receptors. It was transfected with a plasmid (pMAMneo-Luc) encoding firefly luciferase located behind a glucocorticoid-responsive element (GRE) derived from a viral promoter (long terminal repeat of mouse mammary tumor virus). A stable cell line SW1353/MMTV-5 was selected with geneticin, which was required to maintain this plasmid.
SW1353/MMTV-5 cells were distributed in 96-well plates and incubated in medium (without geneticin) for 24 hrs.

Ki (human recombinant GR) [nM] | activity in progesterone receptor reporter gene assay [1] | Ki [2] [nM] | Ki (human recombinant MR) [nM] | Ki [4] [nM] | Structure (SMILES) | fatty liver compared to the controls [3] | lipid droplets in livers (Oil Red O staining) ([3]; 60 mg/kg/day mixed in the food, versus vehicle control)
118 | inactive | 148 | 125 | 24 | O=c1[nH]c(=O)c(Cc2cccc(C(F)(F)F)c2)c([C@H]2CC[C@H](c3ccccc3)CC2)[nH]1 [Compound 1, (E)-6-(4-phenylcyclohexyl)-5-(3-trifluoromethylbenzyl)-1H-pyrimidine-2,4-dione] | did not induce fatty liver | no or low level of lipid droplets
 |  |  |  |  | CC#C[C@]1(O)CC[C@H]2[C@@H]3CCC4=CC(=O)CCC4=C3[C@@H](c3ccc(N(C)C)cc3)C[C@@]21C [mifepristone, reference compound] | increased fatty liver compared to the controls | 
